Laboratory results from US11911445B2, “Peptide YY pharmaceutical formulations, compositions, and methods” (Gila Therapeutics, Inc., priority 2018, dated 2024).
Like-named read-outs stand apart in the source and are kept apart here. No end group written: not given here.

Columns and labels:
[1] = system: subjects with BMIs of 30 to 40 kg/m^2; assay: Dose-escalation clinical trial, feeling of fullness assessed by VAS after lunch; assay type: in vivo, human
Method: An exemplary clinical trial was performed as a dose-escalation design trial. Approximately twelve evaluable subjects (n˜12) with BMIs of 30 to 40 kg/m^2 received a single dose of placebo followed by study drug (PYY(3-36) also known as GT-001) applied directly to the surface of the lingual mucosa with a disposable pipette followed by a one-day washout. A total of seven (7) doses was escalated to a dose of 2.5 mg/ml.
The dose can be prepared, for example, from a stock solution of 2.5 mg/ml PYY(3-36).
Subjects who complete all screening procedures and meet all inclusion and exclusion criteria described within the protocol and found to be eligible for study enrollment checked into the Study Unit (i.e., the study facility). The morning of the study, participants fasted prior to arriving at the SU. Participants fasted for at least 12 hours prior to Day 1 of the study. Participants were permitted to only drink water prior to arrival to SU and were able to brush their teeth. The following assessments and measurements were taken: • (1) Inspection of the lingual mucosa. • (2) Updating medical and medication history prior to placebo application. • (3) Assessing health status. If participant has either rhinitis or gastrointestinal distress, the participant will be discontinued for that day. • (4) Measuring body weight and BMI. • (5) Measuring vital signs (BP, HR, and body temperature). BP and HR were measured twice in the sitting position and twice in the standing position. If BP was high at baseline sitting (>160 systolic), BP was re-checked after participant was sitting for 5-10 min. Body temperature was measured once. • (6) Performing urine drug screen, urine cotinine test, alcohol breath test, and urine pregnancy test. • (7) Subjects provided a 325-400 calorie breakfast and calorie intake was recorded. • (8) Water was provided “ad-libitum” and volume recorded. • (9) Four (4) hours post breakfast, the VAS for Appetite and Satiety was performed. • (10) Inserting a cannula to obtain blood samples, obtaining a 5 ml blood sample, and screening for anti-GT-001 antibodies. • (11) Obtaining a fasting PK blood sample #1 (5 ml) 15 minutes prior to placebo. • (12) Performing a water mouthwash prior to dosing with GT-001. The mouthwash can be a rinse with 20 ml of water. • (13) Giving one milliliter (1 ml) of placebo (formulation without GT-001) to the participant to the tongue via pipette 5 minutes before lunch. • (14) The solution remained on the tongue for 1 minute followed by asking participants to swish and then swallow. • (15) Completing a VAS for like-lines (VAS completed by subjects). • (16) Collecting PK blood samples after each of seven doses at ±1 minute at 5, 10, 15, 30, and ±5 minutes at 60, 120, and 240 minutes post dose. • (17) Isolating subjects from other subjects during lunch. • (18) Provided a “ad-libitum” lunch (composed of a casserole, nutrient drink and two (2) cookies) and recording calorie intake. • (19) Having subjects complete VAS questionnaire for sweetness, sourness, bitterness, saltiness, umami, and fat taste 20 minutes after completing the meals. • (20) Recording VAS for appetite and satiety every 30 minutes for 2 hours after completing the meal. • (21) Discharging subjects. Subjects ate “at-libitum” until the 12-hour fasting period preceding the next study visit. • (22) During the SU visit, subjects were restricted from ingesting gum, candy, tobacco, carbonated drinks, and from performing exercise. During the meal, subjects were not exposed to food cues (visual, odor, or hearing) and they should eat in isolation.
Days 2, 4, 6, 8, 10, 12 and 14 treatment days are the same as day 1.
The following exemplary VAS Assessment was given to subjects to assess their feeling of fullness before and after receiving PYY(3-36) or placebo and before or after eating at various doses described herein. […]

[2] = system: rodents; conditions: augmentation of salivary PYY(3-36); cited from earlier work
[3] = PYY concentration in plasma after lingual administration followed by lunch; assay type: in vivo, human; conditions: 0.25 mg/ml and 2.5 mg/ml, each followed by lunch; up to 4 hours after administration
Method: As shown, administering the placebo followed by food consumption induces the known and expected endogenous production of PYY resulting from food consumption peaking at approximately 20 pg/ml above pre-dose levels at 1-2 hours post-administration.
Subjects who complete all screening procedures and meet all inclusion and exclusion criteria described within the protocol and found to be eligible for study enrollment checked into the Study Unit (i.e., the study facility). The morning of the study, participants fasted prior to arriving at the SU. Participants fasted for at least 12 hours prior to Day 1 of the study. […] BP and HR were measured twice in the sitting position and twice in the standing position. […] Body temperature was measured once. • (6) Performing urine drug screen, urine cotinine test, alcohol breath test, and urine pregnancy test. • (7) Subjects provided a 325-400 calorie breakfast and calorie intake was recorded. • (8) Water was provided “ad-libitum” and volume recorded. • (9) Four (4) hours post breakfast, the VAS for Appetite and Satiety was performed. • (10) Inserting a cannula to obtain blood samples, obtaining a 5 ml blood sample, and screening for anti-GT-001 antibodies. • (11) Obtaining a fasting PK blood sample #1 (5 ml) 15 minutes prior to placebo. • (12) Performing a water mouthwash prior to dosing with GT-001. […]

[4] = system: mice; conditions: cited from earlier work; for effect on 1-hour food intake: augmentation of salivary peptide; for reduction of caloric intake as compared to controls / caloric intake: mice; for reduction of caloric intake as compared to controls: salivary augmentation; for caloric intake: vehicle 4.10±0.04 kcal

| Substance | feeling of fullness, VAS score (FIG. 1) ([1]; dose 25 ng applied to the tongue, 120 minutes post-lunch, 12 subjects, significantly above placebo level) | feeling of fullness, VAS score (FIG. 2) ([1]; dose 25 ng, up to 60 minutes post-lunch) | feeling of fullness, VAS score (FIG. 1) ([1]; dose 2.5 μg applied to the tongue, post-lunch, 12 subjects) | feeling of fullness, VAS score (FIG. 2) ([1]; dose 25 μg, maintained out to 120 minutes post-lunch) | feeling of fullness, VAS scale (FIG. 1) ([1]; dose 250 μg applied to the tongue, post-lunch, 12 subjects) | feeling of fullness, VAS score (FIG. 2) ([1]; dose 250 μg, maintained out to 120 minutes post-lunch) | taste aversion [2] | level of PYY in plasma versus placebo/meal combination (FIG. 3) [3] | effect on 1-hour food intake [4] | reduction of caloric intake as compared to controls ([4]; 0.3 μg/100 g) | caloric intake ([4]; 0.3 μg/100 g, p=0.01) | reduction of caloric intake as compared to controls ([4]; 3 μg/100 g) | caloric intake ([4]; 3 μg/100 g, p=0.008) | reduction of caloric intake as compared to controls ([4]; 10 μg/100 g) | caloric intake ([4]; 10 μg/100 g, p=1.81E-06) |
| --- | --- | --- | --- | --- | --- | --- | --- | --- | --- | --- | --- | --- | --- | --- | --- |
| PYY(3-36) | 7 | about 8 | increases | 8 | about 8 | 8 | does not cause taste aversion | does not raise the level of PYY in plasma above levels induced by the placebo/meal combination | decrease | 16% | 3.44 ± 0.06 kcal | 26% | 3.01 ± 0.06 kcal | 42% | 2.36 ± 0.05 kcal |
| amylin (KCNTATCATQRLANFLVHSSNNFGAILSSTNVGSNTY; not fully specified (C-terminus, bridges); cysteine pairing not given here; UniProt P10997 34-70, looked up) [peptide tested by salivary augmentation for comparison, reference compound] |  |  |  |  |  |  |  |  | no effect |  |  |  |  |  |  |
| neuropeptide Y [reference compound] |  |  |  |  |  |  |  |  | no effect |  |  |  |  |  |  |
